Measurements published in patent US20110038885A1, “CHEMOKINE ANALOGS” (priority 2007, published 2011).
pEC50: −log10 of the molar value. Numbered stars: 1 amine (or outer) side, 2 acyl side, 3 side chain; on linkers, the order of the positions; unused ones are H or OH. Bridge positions count the residues as written; N and C are the ends. Square brackets hold non-standard residues; d marks the D form. Peptide text beside a SMILES is read from it. * marks the point of attachment. NH(CH2)8CO = O=C(CCCCCCCCN[*:1])[*:2]; Lauroyl = CCCCCCCCCCCC(=O)*; Decanoyl = CCCCCCCCCC(=O)*; Isobutyryl = CC(C)C(=O)*; Orn = NCCC[C@H](N)C(=O)O; Dab = NCC[C@H](N)C(=O)O; Dap = NC[C@H](N)C(=O)O; Aoc = NCCCCCCCC(=O)O; Ahp = NCCCCCCC(=O)O; Ahx = NCCCCCC(=O)O; Ava = NCCCCC(=O)O; βAla = NCCC(=O)O

System: MCP-1
Experiment: In vitro chemotaxis (trans-well migration) v MCP-1
Type: cell-based, human
Description: To determine whether an agent inhibits a chemokine-induced activity, such as macrophage recruitment, varying amounts of the agent are mixed with cells in the presence of a known chemoattractant. For example, a range of known concentrations of an agent, e.g., a chemokine peptide, is incubated with a defined number (e.g., 10^4-10^6) of human THP-1 monocyte cells in individual wells of the top compartment of a trans-well plate. Chemokine, at a concentration known to cause significant migration of THP-1 cells in the trans-well migration assay, is placed in the lower compartment of a trans-well plate. Cells are then incubated at 37° C. for a period sufficient to allow migration, e.g., 4 hours. After incubation, the cells are gently removed from the top of the filter with a pipette, 20 μl of 20 mM EDTA in simple PBS is added into each top well, and incubated for 20 minutes at 4° C. The filter is carefully flushed with media using a gentle flow, and removed. A standard curve consisting of a two-fold dilution series of THP-1 cells (in 29 μl) is placed to accurately quantify the number of cells that have migrated. Migrated cells are stained with 3 μl of MTT stock dye solution which is added directly into each well (5 mg/ml in RPMI-1640 without phenol red) (Sigma Chemical Co., St. Louis, Mo., USA) and incubated at 37° C. for 4 hours. The media is carefully aspirated from each well, and the converted dye is solubilized by 20 μl of DMSO. Absorbance of converted dye is measured at a wavelength of 595 nm using an ELISA plate reader. The number of migrated cells in each well is then determined by interpolation of the standard curve (see also Imai et al., J. Biol. Chem., 272:15036, 1997). Any method suitable for counting cells can be used, for example, counting with a hemocytometer, incubation of the cells with MTT (see above), or FACS analysis. A negative control assay is also performed, using TGFβ or another non-chemokine chemoattractant (e.g., IL1β or TNFα). To assess whether the agent is cytotoxic, the same concentrations of agent are incubated with THP-1 cells. Agents which 1) are not cytotoxic at levels which inhibit migration, 2) are ineffective at inhibiting the negative control-induced migration, and 3) reduce or inhibit chemokine-induced THP-1 migration, are agents which fall within the scope of the invention.

Row | Compound | pEC50
1 | CCCCCCCCCC(=O)N[C@H]1CSSC[C@@H](C(N)=O)NC(=O)[C@H](CCC(N)=O)NC(=O)[C@H]([C@@H](C)CC)NC(=O)[C@H](Cc2c[nH]c3ccccc23)NC(=O)[C@H](CCCCN)NC1=O [Example 83, Decanoyl-c(Cys-Lys-Trp-Ile-Gln-Cys)-NH2] (Decanoyl-CKWIQC-NH2; disulfide 1-6) | 7.70
2 | CCCCCCCCCCCC(=O)N[C@H]1CSSC[C@@H](C(N)=O)NC(=O)[C@H](CCC(N)=O)NC(=O)[C@H]([C@@H](C)CC)NC(=O)[C@H](Cc2c[nH]c3ccccc23)NC(=O)[C@H](CCCCN)NC1=O [Example 84, Dodecanoyl-c(Cys-Lys-Trp-Ile-Gln-Cys)-NH2] (Lauroyl-CKWIQC-NH2; disulfide 1-6) | 7.82
3 | CC[C@H](C)[C@@H]1NC(=O)[C@@H](NC(=O)[C@@H](N)Cc2c[nH]c3ccccc23)CSSC[C@@H](C(N)=O)NC(=O)[C@H](CCC(N)=O)NC1=O [Example 85, Trp-c(Cys-Ile-Gln-Cys)-NH2] (H-WCIQC-NH2; disulfide 2-5) | 7.30
4 | CC[C@H](C)[C@@H]1NC(=O)[C@@H](N)CSSC[C@@H](C(N)=O)NC(=O)[C@H](CCC(N)=O)NC1=O [Example 86, c(Cys-Ile-Gln-Cys)-NH2] (H-CIQC-NH2; disulfide 1-4) | 8.12
5 | CC[C@H](C)[C@@H]1NC(=O)[C@H](Cc2c[nH]c3ccccc23)NC(=O)[C@H](CCCCN)NC(=O)CNC(=O)C[C@@H](C(N)=O)NC(=O)[C@H](CCC(N)=O)NC1=O [Example 87, c(Gly-Lys-Trp-Ile-Gln-Asp)-NH2] (GKWIQD-NH2; lactam N-6) | 7.82
6 | CC[C@H](C)[C@@H]1NC(=O)[C@H](Cc2c[nH]c3ccccc23)NC(=O)[C@H](CCCCN)NC(=O)CNC(=O)CC[C@@H](C(N)=O)NC(=O)[C@H](CCC(N)=O)NC1=O [Example 88, c(Gly-Lys-Trp-Ile-Gln-Glu)-NH2] (GKWIQE-NH2; lactam N-6) | 8.05
7 | CC[C@H](C)[C@@H]1NC(=O)[C@H](Cc2c[nH]c3ccccc23)NC(=O)[C@H](CCCCN)NC(=O)CCNC(=O)CC[C@@H](C(N)=O)NC(=O)[C@H](CCC(N)=O)NC1=O [Example 89, c((βAla-Lys-Trp-Ile-Gln-Glu)-NH2] ([βAla]KWIQE-NH2; lactam N-6) | 7.70
8 | CC[C@H](C)[C@@H]1NC(=O)[C@H](Cc2c[nH]c3ccccc23)NC(=O)[C@H](CCCCN)NC(=O)CCCCNC(=O)C[C@@H](C(N)=O)NC(=O)[C@H](CCC(N)=O)NC1=O [Example 90, c(Apn-Lys-Trp-Ile-Gln-Asp)-NH2] ([Ava]KWIQD-NH2; lactam N-6) | 8.15
9 | CC[C@H](C)[C@@H]1NC(=O)[C@H](Cc2c[nH]c3ccccc23)NC(=O)[C@H](CCCCN)NC(=O)CCCCNC(=O)CC[C@@H](C(N)=O)NC(=O)[C@H](CCC(N)=O)NC1=O [Example 91, c(Apn-Lys-Trp-Ile-Gln-Glu)-NH2] ([Ava]KWIQE-NH2; lactam N-6) | 8.05
10 | CC[C@H](C)[C@@H]1NC(=O)[C@H](Cc2c[nH]c3ccccc23)NC(=O)[C@H](CCCCN)NC(=O)CCCCCNC(=O)CC[C@@H](C(N)=O)NC(=O)[C@H](CCC(N)=O)NC1=O [Example 92, c(Ahx-Lys-Trp-Ile-Gln-Glu)-NH2] ([Ahx]KWIQE-NH2; lactam N-6) | 8.30
11 | CC[C@H](C)[C@@H]1NC(=O)[C@H](Cc2c[nH]c3ccccc23)NC(=O)[C@H](CCCCN)NC(=O)CCCCCCNC(=O)C[C@@H](C(N)=O)NC(=O)[C@H](CCC(N)=O)NC1=O [Example 93, c(Aha-Lys-Trp-Ile-Gln-Asp)-NH2] ([Ahp]KWIQD-NH2; lactam N-6) | 8.10
12 | CC[C@H](C)[C@@H]1NC(=O)[C@H](Cc2c[nH]c3ccccc23)NC(=O)[C@H](CCCCN)NC(=O)CCCCCCNC(=O)CC[C@@H](C(N)=O)NC(=O)[C@H](CCC(N)=O)NC1=O [Example 94, c(Aha-Lys-Trp-Ile-Gln-Glu)-NH2] ([Ahp]KWIQE-NH2; lactam N-6) | 8.00
13 | CC[C@H](C)[C@@H]1NC(=O)[C@H](Cc2c[nH]c3ccccc23)NC(=O)[C@H](CCCCN)NC(=O)CCCCCCCNC(=O)C[C@@H](C(N)=O)NC(=O)[C@H](CCC(N)=O)NC1=O [Example 95, c(Aoc-Lys-Trp-Ile-Gln-Asp)-NH2] ([Aoc]KWIQD-NH2; lactam N-6) | 7.70
14 | CC[C@H](C)[C@@H]1NC(=O)[C@H](Cc2c[nH]c3ccccc23)NC(=O)[C@H](CCCCN)NC(=O)CCCCCCCNC(=O)CC[C@@H](C(N)=O)NC(=O)[C@H](CCC(N)=O)NC1=O [Example 96, c(Aoc-Lys-Trp-Ile-Gln-Glu)-NH2] ([Aoc]KWIQE-NH2; lactam N-6) | 8.40
15 | CC[C@H](C)[C@@H]1NC(=O)[C@H](Cc2c[nH]c3ccccc23)NC(=O)[C@H](CCCCN)NC(=O)CCCCCCCCNC(=O)C[C@@H](C(N)=O)NC(=O)[C@H](CCC(N)=O)NC1=O [Example 97, c(Anc-Lys-Trp-Ile-Gln-Asp)-NH2] ([NH(CH2)8CO]KWIQD-NH2; lactam N-6) | 7.82
16 | CC[C@H](C)[C@@H]1NC(=O)[C@H](Cc2c[nH]c3ccccc23)NC(=O)[C@H](CCCCN)NC(=O)CCCCCCCCNC(=O)CC[C@@H](C(N)=O)NC(=O)[C@H](CCC(N)=O)NC1=O [Example 98, c(Anc-Lys-Trp-Ile-Gln-Glu)-NH2] ([NH(CH2)8CO]KWIQE-NH2; lactam N-6) | 7.82
17 | CC[C@H](C)[C@@H]1NC(=O)[C@H](Cc2c[nH]c3ccccc23)NC(=O)[C@H](CCCCN)NC(=O)[C@@H](NC(=O)C(C)C)CC(=O)NCCC[C@@H](C(N)=O)NC(=O)[C@H](CCC(N)=O)NC1=O [Example 99, Isobutyryl-c(Asp-Lys-Trp-Ile-Gln-Orn)-NH2] (Isobutyryl-DKWIQ[Orn]-NH2; lactam 1-6) | 7.30
18 | CC[C@H](C)[C@@H]1NC(=O)[C@H](Cc2c[nH]c3ccccc23)NC(=O)[C@H](CCCCN)NC(=O)[C@@H](NC(=O)C(C)C)CCC(=O)NC[C@@H](C(N)=O)NC(=O)[C@H](CCC(N)=O)NC1=O [Example 100, Isobutyryl-c(Glu-Lys-Trp-Ile-Gln-Dap)-NH2] (Isobutyryl-EKWIQ[Dap]-NH2; lactam 1-6) | 8.00
19 | CC[C@H](C)[C@@H]1NC(=O)[C@H](Cc2c[nH]c3ccccc23)NC(=O)[C@H](CCCCN)NC(=O)[C@@H](NC(=O)C(C)C)CCC(=O)NCC[C@@H](C(N)=O)NC(=O)[C@H](CCC(N)=O)NC1=O [Example 101, Isobutyryl-c(Glu-Lys-Trp-Ile-Gln-Dab)-NH2] (Isobutyryl-EKWIQ[Dab]-NH2; lactam 1-6) | 8.40
20 | CC[C@H](C)[C@@H]1NC(=O)[C@H](Cc2c[nH]c3ccccc23)NC(=O)[C@H](CCCCN)NC(=O)[C@@H](NC(=O)C(C)C)CCC(=O)NCCC[C@@H](C(N)=O)NC(=O)[C@H](CCC(N)=O)NC1=O [Example 102, Isobutyryl-c(Glu-Lys-Trp-Ile-Gln-Orn)-NH2] (Isobutyryl-EKWIQ[Orn]-NH2; lactam 1-6) | 8.00
21 | CC[C@H](C)[C@@H]1NC(=O)[C@H](Cc2c[nH]c3ccccc23)NC(=O)[C@H](CCCCN)NC(=O)[C@@H](NC(=O)C(C)C)CCC(=O)NCCCC[C@@H](C(N)=O)NC(=O)[C@H](CCC(N)=O)NC1=O [Example 103, Isobutyryl-c(Glu-Lys-Trp-Ile-Gln-Lys)-NH2] (Isobutyryl-EKWIQK-NH2; lactam 1-6) | 8.10
22 | CC[C@H](C)[C@@H]1NC(=O)[C@H](Cc2c[nH]c3ccccc23)NC(=O)[C@H](CCCCN)NC(=O)[C@@H](NC(=O)C(C)C)CNC(=O)C[C@@H](C(N)=O)NC(=O)[C@H](CCC(N)=O)NC1=O [Example 104, Isobutyryl-c(Dap-Lys-Trp-Ile-Gln-Asp)-NH2] (Isobutyryl-[Dap]KWIQD-NH2; lactam 1-6) | 7.30
23 | CC[C@H](C)[C@@H]1NC(=O)[C@H](Cc2c[nH]c3ccccc23)NC(=O)[C@H](CCCCN)NC(=O)[C@@H](NC(=O)C(C)C)CCNC(=O)C[C@@H](C(N)=O)NC(=O)[C@H](CCC(N)=O)NC1=O [Example 105, Isobutyryl-c(Dab-Lys-Trp-Ile-Gln-Asp)-NH2] (Isobutyryl-[Dab]KWIQD-NH2; lactam 1-6) | 7.82
24 | CC[C@H](C)[C@@H]1NC(=O)[C@H](Cc2c[nH]c3ccccc23)NC(=O)[C@H](CCCCN)NC(=O)[C@@H](NC(=O)C(C)C)CCCCNC(=O)C[C@@H](C(N)=O)NC(=O)[C@H](CCC(N)=O)NC1=O [Example 106, Isobutyryl-c(Lys-Lys-Trp-Ile-Gln-Asp)-NH2] (Isobutyryl-KKWIQD-NH2; lactam 1-6) | 8.10
25 | CC[C@H](C)[C@@H]1NC(=O)[C@H](Cc2c[nH]c3ccccc23)NC(=O)[C@H](CCCCN)NC(=O)[C@@H](NC(=O)C(C)C)CCNC(=O)CC[C@@H](C(N)=O)NC(=O)[C@H](CCC(N)=O)NC1=O [Example 107, Isobutyryl-c(Dab-Lys-Trp-Ile-Gln-Glu)-NH2] (Isobutyryl-[Dab]KWIQE-NH2; lactam 1-6) | 8.10
